Measured values as given in US8865894B2, “Oxazolidin-2-one compounds and uses thereof” (Novartis AG, priority 2012, dated 2014).

Tests used:
human PI3Kα = target: T1, human PI3Kα (Homo sapiens, UniProt P42336); test: Biochemical PI3Kalpha (KinaseGlo luminescent kinase assay); conditions: biochemical, 1 μM ATP, mean of n measurements
T1 construct: made in house
Description: Test compounds were dissolved in DMSO (10 mM) and transferred into 1.4 mL flat bottom or V-shaped Matrix tubes carrying a unique 2D matrix chip by individual Novartis compound hubs. The numbers of these chips were distinctively linked to Novartis Pharma Numbers. The stock solutions were stored at −20° C. if not used immediately. For the test procedure the vials were defrosted and identified by a scanner whereby a working sheet was generated that guided the subsequent working steps.
Compounds were either manually diluted in DMSO for individual experiments (96 wells enabling 10 cpds at 8 (single points) concentrations) as described in or prepared as described below if tested for profiling in 384-wells. This format enabled the assay of maximally 40 individual test compounds at 8 concentrations (single points) including 4 reference compounds. The dilution protocol included the production of “pre-dilution plates”, “master plates” and “assay plates”.
96 polypropylene well plates were used as pre-dilution plates. A total of 4 pre-dilution plates were prepared including 10 test compounds each on the plate positions A1-A10, one standard compound at A11 and one DMSO control at A12. Programs have been written to run these pipetting steps on the HamiltonSTAR robots.
Identical “assay plates” were then prepared by pipetting 50 nL each of compound dilutions of the “master plates” into 384-well “assay plates”. The compounds were mixed with 4.5 μL of assays components plus 4.5 μL enzyme corresponding to a 1:181 dilution enabling the final concentration of 10, 3.0, 1.0, 0.3, 0.1, 0.03, 0.01 and 0.003 μM, respectively. The preparation of the “master plates” was handled by the Matrix PlateMate Plus robot and replication of “assay plates” by the HummingBird robot.
Catalytically active human PI3Kα, PI3Kβ, PI3Kδ, and mTOR were cloned, expressed and purified as described (Maira S M, Stauffer F, Brueggen J, Furet P, Schnell C, Fritsch C, Brachmann S, Chène P, de Pover A, Schoemaker K, Fabbro D, Gabriel D, Simonen M, Murphy L, Finan P, Sellers W, García-Echeverría C (2008), Mol Cancer Ther. 7:1851-63 and Maira S M, Pecchi S, Brueggen J, Huh K, Schnell C, Fritsch C, Nagel T, Wiesmann M, Brachmann S, Dorsch M, Chène P, Schoemaker K, De Pover A, Menezes D, Fabbro D, Sellers W, García-Echeverría C, Voliva C F (2011), Mol. Cancer Ther. accepted).
The luminescence-based ATP detection reagent KinaseGlo was obtained from Promega, (Cat. No. V6714, Lot No. 236161) through Catalys, Wallisellen, Switzerland. (L-alpha-phosphatidylinositol (PI), Liver, Bovine) were obtained from Avanti Polar Lipid (Cat. No. 840042C, Lot#LPI-274), Phosphatidylinositol-4,5-bisphosphate (PIP(4,5)2 (Avanti, Cat. No. 840046×) or L-α-phosphatidylinositol (PI) was obtained from Avanti Polar Lipid (Cat. No. 840042C, Lot#LPI-274). L-α-Phosphatidylserine (PS) was from Avanti Polar Lipid (Cat. No. 840032C), n-OctylGlucoside Avanti Polar Lipid (Cat. No. 10634425001). Luminescence is a well established readout to determine ATP concentrations and can thus be used to follow the activity of many kinases regardless of their substrate. The Kinase Glo Luminescent Kinase Assay (Promega, Madison/Wis., USA) is a homogeneous HTS method of measuring kinase activity by quantifying the amount of ATP remaining in solution following a kinase reaction.
50 nL of compound dilutions were dispensed onto black 384-well low volume Non Binding Styrene (NBS) plates (Costar Cat. No. NBS#3676) as described in section 8.2. L-α-phosphatidylinositol (PI), provided as 10 mg/ml solution in methanol, was transferred into a glass tube and dried under nitrogen beam. It was then resuspended in 3% OctylGlucoside by vortexing and stored at 4° C. 5 μL of a mix of PI/OG with the PI3Ka and Pi3Kb subtypes were added. Kinase reactions were started by addition of 5 μl of ATP-mix containing in a final volume 10 μL 10 mM TRIS-HCl pH 7.5, 3 mM MgCl2, 50 mM NaCl, 0.05% CHAPS, 1 mM DTT and 1 μM ATP, and occurred at room temperature.

A2058 cells = test: Cell cycle G2/M arrest Cytospin assay to detect tubulin binding (off-target); assay type: cell-based; set-up: key: 0=no condensed DNA observed (indicating no off target activity); 1=(indicating weak off target activity); 2=(indicating medium off target activity); 3=large amount of condensed DNA observed (indicating strong off-target activity); conditions: 5 μM test item, 24 hours
Description: The off-target effect (evidence of tubulin binding) was measured as follows.
Cell cycle G2/M arrest Cytospin assay to detect tubulin binding (off-target) binding activities of MAPP derivatives: 5×10^5 cells A2058 cells were plated in 6-well cluster, with 2 mL of DMEM (high Glucose containing 1% sodium pyruvate, 1% glutamin and 10% FCS). 18 hours later, the test items were added at a concentration of 5 μM (spiking 1 μL of a 10 mM solution of the test item). 24 hours later, the cells were trypsinized and transferred into a 15 mL conical tube. Cells are then pelleted by centrifugation, and resuspended with PBS/0 (containing 10% FCS). Cells are counted with a CASY counter, and each samples equilibrated to 1×10^6 cells/mL. […] The staining was visually assessed for the presence of condensed DNA and given a score where 0=no condensed DNA observed (indicating no off target activity), 1=(indicating weak off target activity), 2=(indicating medium off target activity), 3=large amount of condensed DNA observed (indicating strong off-target activity).

T1 sequence (P42336 with tags, fused parts or gaps limits assumed): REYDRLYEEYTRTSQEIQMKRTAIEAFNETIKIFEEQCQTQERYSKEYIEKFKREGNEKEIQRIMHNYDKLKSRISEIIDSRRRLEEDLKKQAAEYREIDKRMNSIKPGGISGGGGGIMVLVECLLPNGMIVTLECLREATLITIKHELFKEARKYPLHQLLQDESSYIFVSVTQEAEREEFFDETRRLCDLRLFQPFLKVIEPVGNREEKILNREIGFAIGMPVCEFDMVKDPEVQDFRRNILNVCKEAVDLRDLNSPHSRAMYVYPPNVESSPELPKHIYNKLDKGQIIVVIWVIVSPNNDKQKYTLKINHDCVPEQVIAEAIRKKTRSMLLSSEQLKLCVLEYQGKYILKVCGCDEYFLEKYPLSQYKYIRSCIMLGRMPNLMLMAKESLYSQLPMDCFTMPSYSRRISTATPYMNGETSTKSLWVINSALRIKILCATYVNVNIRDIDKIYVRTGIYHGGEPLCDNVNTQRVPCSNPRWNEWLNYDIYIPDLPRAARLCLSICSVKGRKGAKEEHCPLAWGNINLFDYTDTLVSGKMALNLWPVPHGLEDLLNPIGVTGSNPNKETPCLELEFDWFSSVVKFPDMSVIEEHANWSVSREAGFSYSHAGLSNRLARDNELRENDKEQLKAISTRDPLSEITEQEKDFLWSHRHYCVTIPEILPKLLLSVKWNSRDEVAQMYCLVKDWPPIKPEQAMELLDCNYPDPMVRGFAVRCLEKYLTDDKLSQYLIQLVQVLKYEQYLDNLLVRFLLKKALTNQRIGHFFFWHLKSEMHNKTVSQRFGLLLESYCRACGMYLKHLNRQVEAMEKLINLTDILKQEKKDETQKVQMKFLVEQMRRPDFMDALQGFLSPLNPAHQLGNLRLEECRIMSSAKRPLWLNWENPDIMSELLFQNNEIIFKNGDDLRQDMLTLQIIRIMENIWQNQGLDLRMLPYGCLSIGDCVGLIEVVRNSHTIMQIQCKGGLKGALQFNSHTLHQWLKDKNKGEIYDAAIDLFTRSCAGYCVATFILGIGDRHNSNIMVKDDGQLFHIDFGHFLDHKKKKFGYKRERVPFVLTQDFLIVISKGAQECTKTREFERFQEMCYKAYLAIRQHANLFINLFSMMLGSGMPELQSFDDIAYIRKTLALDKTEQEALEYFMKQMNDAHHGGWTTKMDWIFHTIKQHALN

SMILES	PI3Ka/ IC50 (human PI3Kα) [umol I-1]	Score (condensed DNA, G2/M arrest; off-target tubulin binding) (A2058 cells)
Nc1ncc(-c2cc(N3C[C@@H](CO)OC3=O)nc(N3CCOCC3)n2)c(C(F)(F)F)n1 [Example 14, (S)-3-(2′-Amino-2-morpholin-4-yl-4′-trifluoromethyl-[4,5′]bipyrimidinyl-6-yl)-5-hydroxymethyl-oxazolidin-2-one]	0.057	0
C[C@H]1[C@H](CO)OC(=O)N1c1cc(-c2cnc(N)nc2C(F)(F)F)nc(N2CCOCC2)n1 [Example 15, (4S,5R)-3-(2′-Amino-2-morpholin-4-yl-4′-trifluoromethyl-[4,5′]bipyrimidinyl-6-yl)-5-hydroxymethyl-4-methyl-oxazolidin-2-one]	0.026	0
C[C@H]1CN(c2cc(-c3cnc(N)nc3C(F)(F)F)nc(N3CCOCC3)n2)C(=O)O1 [Example 16, (S)-3-(2′-Amino-2-morpholin-4-yl-4′-trifluoromethyl-[4,5′]bipyrimidinyl-6-yl)-5-methyl-oxazolidin-2-one]	0.030	0
[2H]C1([2H])OC([2H])([2H])C([2H])([2H])N(c2nc(-c3cnc(N)nc3C(F)(F)F)cc(N3C(=O)OC[C@@H]3C)n2)C1([2H])[2H] [Example 17, (S)-3-(2′-amino-2-D8-morpholino-4′-(trifluoromethyl)-[4,5′-bipyrimidin]-6-yl)-4-methyloxazolidin-2-one]	0.017	0

Second part, the compound after the results:

PI3Ka/ IC50 (human PI3Kα) [umol I-1]	Score (condensed DNA, G2/M arrest; off-target tubulin binding) (A2058 cells)	SMILES
0.009	0	C[C@H]1OC(=O)N(c2cc(-c3cnc(N)nc3C(F)(F)F)nc(N3CCOCC3)n2)[C@H]1CO [Example 18, (4S,5R)-3-(2′-Amino-2-morpholin-4-yl-4′-trifluoromethyl-[4,5′]bipyrimidinyl-6-yl)-4-hydroxymethyl-5-methyl-oxazolidin-2-one]
0.006	0	C[C@H]1[C@@H](CO)OC(=O)N1c1cc(-c2cnc(N)nc2C(F)(F)F)nc(N2CCOCC2)n1 [Example 19, (4S,5S)-3-(2′-Amino-2-morpholin-4-yl-4′-trifluoromethyl-[4,5′]bipyrimidinyl-6-yl)-5-hydroxymethyl-4-methyl-oxazolidin-2-one]
0.024	1-2	Nc1ncc(-c2cc(N3C[C@H](CO)OC3=O)nc(N3CCOCC3)n2)c(C(F)(F)F)n1 [Example 20, (R)-3-(2′-Amino-2-morpholin-4-yl-4′-trifluoromethyl-[4,5′]bipyrimidinyl-6-yl)-5-hydroxymethyl-oxazolidin-2-one]
0.019	0	Nc1ncc(-c2cc(N3C(=O)O[C@H]4COC[C@H]43)nc(N3CCOCC3)n2)c(C(F)(F)F)n1 [Example 21, (3aR,6aR)-3-(2′-amino-2-morpholino-4′-(trifluoromethyl)-[4,5′-bipyrimidin]-6-yl)-tetrahydrofuro[3,4-d]oxazol-2(3H)-one]
0.006	0	C[C@H]1[C@@H](CCO)OC(=O)N1c1cc(-c2cnc(N)nc2C(F)(F)F)nc(N2CCOCC2)n1 [Example 23, (4S,5R)-3-(2′-Amino-2-morpholino-4′-(trifluoromethyl)-[4,5′-bipyrimidin]-6-yl)-5-(2-hydroxyethyl)-4-methyloxazolidin-2-one]
